Reference: patent EP4722228A1, “NEW COMPOUND TARGETING MUSK AND USE THEREOF” (The University of Tokyo, priority 2023, dated 2024)
Numbered stars: 1 amine (or outer) side, 2 acyl side, 3 side chain; on linkers, the order of the positions; unused ones are H or OH. Bridge positions count the residues as written; N and C are the ends. Square brackets hold non-standard residues; d marks the D form. Peptide text beside a SMILES is read from it. I, II: the chains in the order shown. X1 = O=C(CCN1C(=O)CC([*:1])C1=O)NCCOCCOCCOCCOCCOCCOCCOCCOCCOCCOCCOCCNC(=O)CCN1C(=O)CC([*:2])C1=O; X2 = O=C(CCN1C(=O)CC([*:1])C1=O)NCCCOCCOCCOCCCNC(=O)CCN1C(=O)CC([*:2])C1=O

Molecular target: T1, human MuSK (Homo sapiens, UniProt O15146)
T1 construct: DNA corresponding to the extracellular portion (amino acids 1-493) was amplified by a PCR method; made in house; host or cells: Expi293F cells
T1 sequence (O15146 24-493): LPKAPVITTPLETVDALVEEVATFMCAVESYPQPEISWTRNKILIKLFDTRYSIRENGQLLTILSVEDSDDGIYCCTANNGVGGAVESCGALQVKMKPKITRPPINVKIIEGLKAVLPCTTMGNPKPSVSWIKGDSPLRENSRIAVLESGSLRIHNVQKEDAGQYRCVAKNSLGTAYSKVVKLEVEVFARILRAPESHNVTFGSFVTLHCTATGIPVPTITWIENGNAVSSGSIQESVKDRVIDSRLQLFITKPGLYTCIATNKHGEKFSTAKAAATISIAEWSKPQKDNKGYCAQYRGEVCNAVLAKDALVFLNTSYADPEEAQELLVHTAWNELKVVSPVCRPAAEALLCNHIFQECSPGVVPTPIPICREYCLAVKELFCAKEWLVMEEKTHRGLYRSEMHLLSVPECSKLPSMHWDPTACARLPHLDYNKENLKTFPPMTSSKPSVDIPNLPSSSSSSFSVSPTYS
Assay: SPR binding activity test to human MuSK (Biacore)
Details: human MuSK, peptide homodimers; for Kd: read-out: Kd
Method: The human MuSK protein (extracellular portion) was prepared as a recombinant protein as follows. Using a Flexi clone (FXC31275, Promega Corporation) encoding Human MuSK isoform 1 precursor (NCBI Reference Sequence: NP_005583.1) as a template, DNA corresponding to the extracellular portion (amino acids 1-493) was amplified by a PCR method. XhoI and EcoRI restriction enzyme recognition sequences were added to both the 5' and 3' ends of the amplified DNA sequence, and these were used for insertion into the multiple cloning site of a pCAG-Neo hIgG1-Fc plasmid (Fujifilm Wako Pure Chemical Corporation). This plasmid (pCAG-Neo hMuSK-Fc) enables expression of a chimeric protein of the secretory human MuSK extracellular portion and human IgG1 Fc (hMuSK-Fc; molecular weight of approximately 200 kDa) in animal cells. In practice, ExpiFectamine 293 reagent (Invitrogen) was used to transfect the pCAG-Neo hMuSK-Fc plasmid into Expi293F cells (Invitrogen), and shaking culture was carried out (for 6 days) in an incubator containing 8% CO2. Next, the culture supernatant was collected, centrifuged, and sterilized by filtration through a 0.22 µm filter. The obtained culture supernatant was subjected to Protein G purification, and finally, a purified hMuSK-Fc sample with 99.96% purity (AKTA-FPLC analysis) was obtained.
The strength of binding between MuSK and the cyclic peptides was evaluated by quantitatively measuring the binding kinetics (binding affinity (dissociation constant) KD) of the cyclic peptides to MuSK immobilized on a sensor chip via an Fc tag, using surface plasmon resonance (SPR).
According to the standard immobilization protocol provided by the manufacturer, Fc-tagged human/mouse/rat MuSK was immobilized on a Protein G chip or a Protein A chip (Cytiva). A running buffer for the monomer/dimer peptides contained 0.010 M phosphate, 0.14 M NaCl, 0.0027 M KCl, 0.05% (v/v) Tween 20, and 0.1% (v/v) DMSO. A running buffer for the monomer/dimer U-bodies contained 0.010 M phosphate, 0.14 M NaCl, 0.0027 M KCl, and 0.05% (v/v) Tween 20. A series of concentrations of each monomer peptide, dimer peptide, monomer U-body, and dimer U-body was injected as analytes. A 1:1 binding fitting analysis was applied using Biacore evaluation software, and ka, kd, and KD values were determined.
Fc-tagged human MuSK was prepared according to the procedure described in Example 1(1). In addition, Fc-tagged mouse MuSK was used by expressing a nucleotide sequence encoding the Fc-tagged mouse MuSK extracellular domain (SEQ ID NO: 34). In addition, Fc-tagged rat MuSK was used as a chimeric protein of rat MuSK and an Fc protein, namely, Recombinant Rat MuSK Fc Chimera Protein (catalog number: 9847-MK-050, R&D Systems).
The affinity of the U-bodies and their complexes obtained as described above for MuSK of human, rat, and mouse was evaluated (binding activity test). The test was carried out according to the procedure described in Example 1(3). However, for the complexes of U-bodies, surface plasmon resonance (SPR) analysis was carried out using a Biacore 8K (Cytiva).

Row | Compound | koff [s⁻¹] | kon [M⁻¹ s⁻¹] | Kd [nM]
1 | CC(C)C[C@@H]1NC(=O)[C@H](CO)NC(=O)[C@H](C)NC(=O)[C@H](C(C)C)NC(=O)[C@H](C(C)C)NC(=O)[C@H](CC(N)=O)NC(=O)[C@H]([C@@H](C)O)NC(=O)[C@H](Cc2c[nH]cn2)NC(=O)[C@H](Cc2ccc(O)cc2)NC(=O)[C@H](CO)NC(=O)[C@@H]2CCCN2C(=O)[C@@H](Cc2ccc(O)cc2)NC(=O)CSC[C@@H](C(=O)N[C@@H](CSC2CC(=O)N(CCC(=O)NCCCOCCOCCOCCCNC(=O)CCN3C(=O)CC(SC[C@H](NC(=O)[C@@H]4CSCC(=O)N[C@H](Cc5ccc(O)cc5)C(=O)N5CCC[C@H]5C(=O)N[C@@H](CO)C(=O)N[C@@H](Cc5ccc(O)cc5)C(=O)N[C@@H](Cc5c[nH]cn5)C(=O)N[C@@H]([C@@H](C)O)C(=O)N[C@@H](CC(N)=O)C(=O)N[C@@H](C(C)C)C(=O)N[C@@H](C(C)C)C(=O)N[C@@H](C)C(=O)N[C@@H](CO)C(=O)N[C@@H](CC(C)C)C(=O)N[C@@H](CCCCN)C(=O)N[C@@H](CCCNC(=N)N)C(=O)N4)C(N)=O)C3=O)C2=O)C(N)=O)NC(=O)[C@H](CCCNC(=N)N)NC(=O)[C@H](CCCCN)NC1=O (stereo partly shown) [MuSK7 PEG3 dimer] (I: {CH2CO}-[dY]PSYHTNVVASLKRCC-NH2 / II: {CH2CO}-[dY]PSYHTNVVASLKRCC-NH2; linker I:16-II:16 via X2; thioether I:N-I:15, II:N-II:15) | 0.00034 | 540000 | 
2 | CC(C)C[C@@H]1NC(=O)[C@H](CC(C)C)NC(=O)[C@H](CO)NC(=O)[C@H](C(C)C)NC(=O)[C@H](C(C)C)NC(=O)[C@H](CC(N)=O)NC(=O)[C@H]([C@@H](C)O)NC(=O)[C@@H]2CCCN2C(=O)[C@H](Cc2ccccc2)NC(=O)[C@@H](Cc2ccc(O)cc2)NC(=O)CSC[C@@H](C(=O)N[C@@H](CSC2CC(=O)N(CCC(=O)NCCOCCOCCOCCOCCOCCOCCOCCOCCOCCOCCOCCNC(=O)CCN3C(=O)CC(SC[C@H](NC(=O)[C@@H]4CSCC(=O)N[C@H](Cc5ccc(O)cc5)C(=O)N[C@@H](Cc5ccccc5)C(=O)N5CCC[C@H]5C(=O)N[C@@H]([C@@H](C)O)C(=O)N[C@@H](CC(N)=O)C(=O)N[C@@H](C(C)C)C(=O)N[C@@H](C(C)C)C(=O)N[C@@H](CO)C(=O)N[C@@H](CC(C)C)C(=O)N[C@@H](CC(C)C)C(=O)N[C@@H](CCCCN)C(=O)N[C@@H](CO)C(=O)N4)C(N)=O)C3=O)C2=O)C(N)=O)NC(=O)[C@H](CO)NC(=O)[C@H](CCCCN)NC1=O (stereo partly shown) [MuSK4 PEG11 dimer] (I: {CH2CO}-[dY]FPTNVVSLLKSCC-NH2 / II: {CH2CO}-[dY]FPTNVVSLLKSCC-NH2; linker I:14-II:14 via X1; thioether I:N-I:13, II:N-II:13) | 0.0056 | 810000 | 6.9
3 | CC(C)C[C@@H]1NC(=O)[C@H](CC(C)C)NC(=O)[C@H](CO)NC(=O)[C@H](C(C)C)NC(=O)[C@H](C(C)C)NC(=O)[C@H](CC(N)=O)NC(=O)[C@H]([C@@H](C)O)NC(=O)[C@@H]2CCCN2C(=O)[C@H](Cc2ccccc2)NC(=O)[C@@H](Cc2ccc(O)cc2)NC(=O)CSC[C@@H](C(=O)N[C@@H](CSC2CC(=O)N(CCC(=O)NCCCOCCOCCOCCCNC(=O)CCN3C(=O)CC(SC[C@H](NC(=O)[C@@H]4CSCC(=O)N[C@H](Cc5ccc(O)cc5)C(=O)N[C@@H](Cc5ccccc5)C(=O)N5CCC[C@H]5C(=O)N[C@@H]([C@@H](C)O)C(=O)N[C@@H](CC(N)=O)C(=O)N[C@@H](C(C)C)C(=O)N[C@@H](C(C)C)C(=O)N[C@@H](CO)C(=O)N[C@@H](CC(C)C)C(=O)N[C@@H](CC(C)C)C(=O)N[C@@H](CCCCN)C(=O)N[C@@H](CO)C(=O)N4)C(N)=O)C3=O)C2=O)C(N)=O)NC(=O)[C@H](CO)NC(=O)[C@H](CCCCN)NC1=O (stereo partly shown) [MuSK4 PEG3 dimer] (I: {CH2CO}-[dY]FPTNVVSLLKSCC-NH2 / II: {CH2CO}-[dY]FPTNVVSLLKSCC-NH2; linker I:14-II:14 via X2; thioether I:N-I:13, II:N-II:13) | 0.0044 | 650000 | 
4 | I: Ac-C[dY]LPEFSWPESFVLFLRQRQRQLGRGAE-NH2 / II: Ac-C[dY]LPEFSWPESFVLFLRQRQRQLGRGAE-NH2 (linker I:1-II:1 via X1) [MuSK1Ac PEG11 dimer] | 0.001 | 660000 | 
5 | I: Ac-[dY]LPEFSWPESFVLFLRQRQRQLGRGAEC-NH2 / II: Ac-[dY]LPEFSWPESFVLFLRQRQRQLGRGAEC-NH2 (linker I:28-II:28 via X2) [MuSK1Ac Term PEG3 dimer] | 0.0012 | 200000 | 
6 | CC[C@H](C)[C@@H]1NC(=O)[C@H](CC(N)=O)NC(=O)[C@H](C(C)C)NC(=O)[C@H](Cc2ccc(O)cc2)NC(=O)CNC(=O)[C@@H]2CCCN2C(=O)[C@H](CCC(N)=O)NC(=O)[C@H](CC(C)C)NC(=O)[C@H](Cc2ccc(O)cc2)NC(=O)[C@H](Cc2c[nH]c3ccccc23)NC(=O)[C@@H](Cc2ccc(O)cc2)NC(=O)CSC[C@@H](C(=O)N[C@@H](CSC2CC(=O)N(CCC(=O)NCCCOCCOCCOCCCNC(=O)CCN3C(=O)CC(SC[C@H](NC(=O)[C@@H]4CSCC(=O)N[C@H](Cc5ccc(O)cc5)C(=O)N[C@@H](Cc5c[nH]c6ccccc56)C(=O)N[C@@H](Cc5ccc(O)cc5)C(=O)N[C@@H](CC(C)C)C(=O)N[C@@H](CCC(N)=O)C(=O)N5CCC[C@H]5C(=O)NCC(=O)N[C@@H](Cc5ccc(O)cc5)C(=O)N[C@@H](C(C)C)C(=O)N[C@@H](CC(N)=O)C(=O)N[C@@H]([C@@H](C)CC)C(=O)N[C@@H](C(C)C)C(=O)N[C@@H]([C@@H](C)O)C(=O)N[C@@H](CO)C(=O)N[C@@H](Cc5ccc(O)cc5)C(=O)N[C@@H](Cc5c[nH]cn5)C(=O)N4)C(N)=O)C3=O)C2=O)C(N)=O)NC(=O)[C@H](Cc2c[nH]cn2)NC(=O)[C@H](Cc2ccc(O)cc2)NC(=O)[C@H](CO)NC(=O)[C@H]([C@@H](C)O)NC(=O)[C@H](C(C)C)NC1=O (stereo partly shown) [MuSK9 PEG3 dimer] (I: {CH2CO}-[dY]WYLQPGYVNIVTSYHCC-NH2 / II: {CH2CO}-[dY]WYLQPGYVNIVTSYHCC-NH2; linker I:18-II:18 via X2; thioether I:N-I:17, II:N-II:17) | 0.0017 | 780000 | 
7 | CC[C@H](C)[C@@H]1NC(=O)[C@H](CC(N)=O)NC(=O)[C@H](C(C)C)NC(=O)[C@H](Cc2ccc(O)cc2)NC(=O)CNC(=O)[C@@H]2CCCN2C(=O)[C@H](CCC(N)=O)NC(=O)[C@H](CC(C)C)NC(=O)[C@H](Cc2ccc(O)cc2)NC(=O)[C@H](Cc2c[nH]c3ccccc23)NC(=O)[C@@H](Cc2ccc(O)cc2)NC(=O)CSC[C@@H](C(=O)N[C@@H](CSC2CC(=O)N(CCC(=O)NCCOCCOCCOCCOCCOCCOCCOCCOCCOCCOCCOCCNC(=O)CCN3C(=O)CC(SC[C@H](NC(=O)[C@@H]4CSCC(=O)N[C@H](Cc5ccc(O)cc5)C(=O)N[C@@H](Cc5c[nH]c6ccccc56)C(=O)N[C@@H](Cc5ccc(O)cc5)C(=O)N[C@@H](CC(C)C)C(=O)N[C@@H](CCC(N)=O)C(=O)N5CCC[C@H]5C(=O)NCC(=O)N[C@@H](Cc5ccc(O)cc5)C(=O)N[C@@H](C(C)C)C(=O)N[C@@H](CC(N)=O)C(=O)N[C@@H]([C@@H](C)CC)C(=O)N[C@@H](C(C)C)C(=O)N[C@@H]([C@@H](C)O)C(=O)N[C@@H](CO)C(=O)N[C@@H](Cc5ccc(O)cc5)C(=O)N[C@@H](Cc5c[nH]cn5)C(=O)N4)C(N)=O)C3=O)C2=O)C(N)=O)NC(=O)[C@H](Cc2c[nH]cn2)NC(=O)[C@H](Cc2ccc(O)cc2)NC(=O)[C@H](CO)NC(=O)[C@H]([C@@H](C)O)NC(=O)[C@H](C(C)C)NC1=O (stereo partly shown) [MuSK9 PEG11 dimer] (I: {CH2CO}-[dY]WYLQPGYVNIVTSYHCC-NH2 / II: {CH2CO}-[dY]WYLQPGYVNIVTSYHCC-NH2; linker I:18-II:18 via X1; thioether I:N-I:17, II:N-II:17) | 0.0017 | 440000 | 3.9
